Measured values reported in patent US20200157135A1, “SIDE-CHAIN MODIFIED ERGOSTEROL AND STIGMASTEROL DERIVATIVES AS LIVER X RECEPTOR MODULATORS” (Ospedale San Raffaele srl, priority 2017, published 2020).
Where two headings read alike, the source gives them in different places.

Tests used:
[1] = target: T1, hLXRβ (Homo sapiens, UniProt P55055); assay: luciferase assay with GAL-4 chimeric hLXRβ receptor in human embryonic kidney 293 cells; type: cell-based; details: for Emax: HEK293, 24 h; for EC50: GAL4-hLXRβ luciferase, HEK293, dose-response 32-1 μM, mean of three-five independent experiments, read-out: LXRβ EC50 (μM) ± SD
T1 sequence (P55055 222-460 limits assumed): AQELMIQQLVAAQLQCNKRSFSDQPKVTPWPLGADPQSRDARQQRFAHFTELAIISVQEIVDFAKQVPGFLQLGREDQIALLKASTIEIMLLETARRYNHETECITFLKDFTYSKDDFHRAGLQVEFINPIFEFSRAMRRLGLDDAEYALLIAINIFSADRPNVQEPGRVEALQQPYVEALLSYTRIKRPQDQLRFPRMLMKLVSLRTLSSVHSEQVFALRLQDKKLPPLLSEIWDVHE
Experimental: (§1) All the synthesized compounds were first tested for their ability to activate LXRs by using luciferase assays with GAL-4 chimeric receptors. These were performed by co-transfecting plasmids encoding hLXRα- and β-binding domains fused to GAL-4, with the respective responsive element conjugated with the luciferase reporter gene into the human embryonic kidney 293 cells.
(§2) Cell Culture and Co-transfection Assays. Human embryonic Kidney 293 cells (American Type Culture Collection) were cultured in Dulbecco's Modified Eagle's medium containing 10% of fetal bovine serum at 37° C. in humidified atmosphere of 5% CO2. HEK293 cells (4×10^4 cells per well) were transiently transfected in 48 well plate with the reporter plasmids pMH100X4-TK-luc (100 ng/well), Renilla (22 ng/well) together with 100 ng/well of pCMX-Gal4-RXR, pCMX-Gal4-PPAR-γ, pCMX-Gal4-PXR, pFA-CMV-FXR pCMX-Gal4-LXR-α or pCMX-Gal4-LXR-β plasmids using X-tremeGENE 9 DNA Transfection Reagent (Roche). Six hours after transfection, the cells were treated with the appropriate compound for 24 hours. Luciferase activities were analyzed by luciferase Dual Reporter Assay Systems (Promega) according to the manufacturer's protocol. GAL4-LXRs, GAL4-PPAR-γ, GAL4-RXR and TK-MHC100-luc plasmids were described in Villablanca et al.49 GAL4-PXR was a kind gift of Dr. Enrique Sainz (The Scripps Research Institute, La Jolla, USA). GAL4-FXR was a kind gift of Dr. Daniel Merk (Goethe-University Frankfurt am Main). The results obtained by luciferase assays and reported in Table 1 are from three to five independent experiments.
(§3) Statistical analysis. Data are expressed as mean±SEM and were analyzed for significance by ANOVA with Dunnet's multiple comparison tests. The analysis was performed with Prism software. Data in Table 1 are expressed as EC50±SD. In particular, the standard deviations were obtained by calculating the mean of the EC50 of each experiment (three to five independent experiments). The efficacy (%) of the compounds was calculated as the percentage of the compound effect, in terms of LXRα or β activation, versus 8 μM of 22R—HC±SD. The analyses were performed with Prism software.

[2] = target: T2, hLXRα (Homo sapiens, UniProt Q13133); assay: luciferase assay with GAL-4 chimeric hLXRα receptor in human embryonic kidney 293 cells; type: cell-based; details: for Emax: HEK293, 24 h, read-out: LXRα Efficacy (%) ± SD; for EC50: GAL4-hLXRα luciferase, HEK293, dose-response 32-1 μM, mean of three-five independent experiments, read-out: LXRα EC50 (μM) ± SD
T2 sequence (Q13133 209-447 limits assumed): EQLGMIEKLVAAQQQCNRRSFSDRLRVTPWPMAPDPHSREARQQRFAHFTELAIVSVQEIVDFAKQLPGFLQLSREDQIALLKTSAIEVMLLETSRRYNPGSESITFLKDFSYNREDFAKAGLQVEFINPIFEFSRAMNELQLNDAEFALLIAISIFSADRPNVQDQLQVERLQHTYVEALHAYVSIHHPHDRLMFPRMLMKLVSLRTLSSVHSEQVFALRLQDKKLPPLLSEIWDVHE
Experimental: as §1, §2, §3

[3] = system: hPXR; assay: luciferase assay GAL4-hPXR in human embryonic kidney 293 cells; type: cell-based; details: compounds at 10 μM
Experimental: Human embryonic kidney 293 cells were co-transfected with GAL4-hRXR (A), GAL4-hPPARγ (B), GAL4-hPXR (C) and GAL4-hFXR (D) expression plasmids together with GAL4 responsive element pMHC100X4-TK-luc and Renilla plasmids. Cells were incubated with vehicle (DMSO), PFMs at the concentration of 10 μM, and the nuclear receptor specific ligands 9cis retinoic acid (100 nM) (A), Rosiglitazone (RSG 100 nM) (B), T0901317 (100 nM) (C) and GW4064 (100 nM) (D) for six hours. The values represent mean±S.D. RLA, relative luciferase activity.
The selectivity of our compounds within the nuclear receptor superfamily was also evaluated by luciferase assays using GAL4-RXR, -PPARγ, -PXR and -FXR plasmids.
as §2

[4] = system: SREBP1c; assay: qPCR of SREBP1c expression in HepG2 cells; type: cell-based, human; details: 10 μM
Experimental: HepG2 cells were treated with T0901317 (10 μM), 22R—HC (3) (10 μM) or with the tested compound (10 μM). […] (n=3/group). *p<0.05, **p<0.01, ***p<0.001.
LXR agonists induce the expression of target genes, which are involved in cholesterol homeostasis, particularly in the reverse cholesterol transport pathway.43 Indeed, LXR agonists induce the expression of ABCA1 both in macrophages and in many tissues of the periphery such as the intestine.44 Moreover, ABCA1 regulates cholesterol efflux to APOAI acceptors.45 In the liver, LXR activation promotes the biosynthesis of fatty acids, a process also termed as de novo lipogenesis by inducing the expression of the master regulator of hepatic lipogenesis sterol-regulatory element-binding protein 1C (SREBP-1c), as well as several downstream genes in the SREBP-1c pathway, including steroyl CoA desaturase 1 (SCD1) and fatty acid synthase (FASN).43 Therefore, it was investigated, by quantitative PCR (qPCR), the expression of ABCA1, SREBP1c, FASN, and SCD1, by using RNA from monocytic U937 cells (FIG. 3) and from hepatic HepG2 cells (FIG. 4) stimulated with our compounds, the non-steroidal agonist T0901317 or the endogenous ligand 22R—HC (3) as positive controls. […] 43,22 was evaluated. […]
Quantitative Real-Time-PCR. […] The comparative Ct method was used to quantify transcripts that were normalized for human GAPDH. the following primer pairs were used: […]

[5] = system: MCP-1/CCL2; assay: qPCR of CCL2 expression in differentiated U937 cells treated with LPS; type: cell-based, human; details: differentiated U937, 6 hours, 10 μM in combination with LPS (100 ng/ml)
Experimental: (§4) U937 cells differentiated with PMA for 72 hours were treated with LPS (100 ng/ml) in combination with T0901317 (10 μM) or with the title compounds (10 μM). […] (n=3/group). *p<0.05, **p<0.01, ***p<0.001.
(§5) Quantitative Real-Time-PCR. U937 cell line was differentiated in foam macrophages with phorbol 12-myristate 13-acetate (PMA) 10 ng/ml (Sigma) for 72 hours at 37° C. in […] at the concentration of 3×10^6 cells in 10 ml RPMI 10% FBS. At day 3 nuclear receptor ligands were added for 6 hours. HepG2 cells were treated with the ligands as described by Quinet et al.22 Total RNA was purified by TRIZOL (Invitrogen, Carlsbad, Calif., USA). Reverse transcription was performed incubating 2 μg of total RNA 1 hour at 42° C. with MLV-reverse transcriptase (Promega). Quantitative PCR was performed using Sybr Green Master Mix (Applied Biosystems) and real-time PCR (Viia 7 Real Time PCR System, Applied Biosystems). All PCR reactions were done in triplicate. The comparative Ct method was used to quantify transcripts that were normalized for human GAPDH. the following primer pairs were used: […]

[6] = system: ABCA1; assay: qPCR of ABCA1 expression in PMA-differentiated U937 cells; type: cell-based, human; details: U937 differentiated with PMA 72 h; 10 μM, 6 hours
Experimental: (§6) U937 cells differentiated with PMA for 72 hours were treated with T0901317 (10 μM), 22R—HC (3) or with the tested compound (10 μM). […] (n=3/group). *p<0.05, **p<0.01, ***p<0.001.
(§7) LXR agonists induce the expression of target genes, which are involved in cholesterol homeostasis, particularly in the reverse cholesterol transport pathway.43 Indeed, LXR agonists induce the expression of ABCA1 both in macrophages and in many tissues of the periphery such as the intestine.44 Moreover, ABCA1 regulates cholesterol efflux to APOAI acceptors.45 In the liver, LXR activation promotes the biosynthesis of fatty acids, a process also termed as de novo lipogenesis by inducing the expression of the master regulator of hepatic lipogenesis sterol-regulatory element-binding protein 1C (SREBP-1c), as well as several downstream genes in the SREBP-1c pathway, including steroyl CoA desaturase 1 (SCD1) and fatty acid synthase (FASN).43 Therefore, it was investigated, by quantitative PCR (qPCR), the expression of ABCA1, SREBP1c, FASN, and SCD1, by using RNA from monocytic U937 cells (FIG. 3) and from hepatic HepG2 cells (FIG. 4) stimulated with our compounds, the non-steroidal agonist T0901317 or the endogenous ligand 22R—HC (3) as positive controls. […] Then, the induction of genes involved in the lipogenesis using the hepatic cell line HepG2. 43,22 was evaluated. […] Over the time, indeed, substantial efforts have been dedicated to the identification of LXR ligands able to turning on ABC transporter genes, without affecting lipogenic genes levels. This task is still one of the major challenge to the discovery of a clinically useful LXR modulator for atherosclerosis.
as §5

[7] = system: TNFα; assay: qPCR of TNFα expression in differentiated U937 cells treated with LPS; type: cell-based, human; details: differentiated U937, 6 hours, 10 μM in combination with LPS (100 ng/ml)
Experimental: as §4, §5

[8] = system: SREBP1c; assay: qPCR of SREBP1c expression in PMA-differentiated U937 cells; type: cell-based, human; details: U937 differentiated with PMA 72 h; 10 μM, 6 hours
Experimental: as §6, §7, §5

[9] = system: SCD1; assay: qPCR of SCD1 expression in PMA-differentiated U937 cells; type: cell-based, human; details: U937 differentiated with PMA 72 h; 10 μM, 6 hours
Experimental: as §6, §7, §5

[10] = read-out: LXRβ Efficacy (%) ± SD, % of compound effect versus 8 μM of 22R-HC
[11] = % of compound effect versus 8 μM of 22R-HC, read-out: LXRβ Efficacy (%) ± SD
[12] = % of compound effect versus 8 μM of 22R-HC

| SMILES | Emax [1, 10] [%] | Emax [2] [%] | EC50 [1] [µM] | EC50 [2] [µM] | Emax [1, 11] [%] | Emax [2, 12] [%] | inhibition of CCL2 expression [5] | also measured |
| --- | --- | --- | --- | --- | --- | --- | --- | --- |
| C=C[C@@](O)(CC[C@@H](C)C1CCC2C3CC=C4C[C@@H](O)CC[C@]4(C)C3CC[C@@]21C)C(C)C (stereo partly drawn) [Compound 12, 24(S)-saringosterol, reference compound] | 61 ± 17.4 | 43.4 ± 17.6 | – | – | – | – | – | beta/alfa efficacy ratio ([1]; LXRβ efficacy over LXRα efficacy): 1.4 |
| CC[C@@H](C(C)C)[C@@H]1O[C@H]1[C@@H](C)[C@H]1CC[C@H]2[C@@H]3CC=C4C[C@@H](O)CC[C@]4(C)[C@H]3CC[C@]12C [Compound 14, (22S,23S)-22,23-Epoxystigmast-5-ene-3β-ol] | 36.3 ± 3 | 56.8 ± 4.6 | 12.7 ± 2.7 | 16.4 ± 0.62 | – | – | – | – |
| CC(C)[C@@H](C)[C@H]1O[C@@H]1[C@@H](C)[C@H]1CC[C@H]2C3=CC=C4C[C@@H](O)CC[C@]4(C)[C@H]3CC[C@]12C [Compound 15, (22R,23R)-22,23-Epoxyergosta-5,7-diene-3β-ol] | – | – | 7.2 ± 0.94 | 4.11 ± 0.31 | 30.4 ± 10.6 | 93.2 ± 5.8 | – | PXR activation [3]: slight activation of PXR |
| CC(C)[C@@H](C)[C@@H]1O[C@H]1[C@@H](C)[C@H]1CC[C@H]2C3=CC=C4C[C@@H](O)CC[C@]4(C)[C@H]3CC[C@]12C [Compound 16, (22S,23S)-22,23-Epoxyergosta-5,7-diene-3β-ol] | – | – | 1.96 ± 0.05 | 1.5 ± 0.12 | 48.5 ± 13 | 51.7 ± 3.8 | same grade of potency of the positive control T0901317 | SREBP-1c up-regulation [4]: significant up-regulation of SREBP-1c; LXR isoform selectivity profile ([2]; LXRα versus LXRβ, GAL4 luciferase assays): non-selective and poorly preferential LXRα agonists |
| CC[C@@H](C(C)C)[C@H](O)C[C@@H](C)[C@H]1CC[C@H]2[C@@H]3CC=C4C[C@@H](O)CC[C@]4(C)[C@H]3CC[C@]12C [Compound 19, (23R)-3β-Stigmast-5-ene-3,23-diol] | – | – | 2.7 ± 1.16 | 3.2 ± 0.54 | – | – | same grade of potency of the positive control T0901317 | ABCA1 expression [6]: strong induction of ABCA1 expression; inhibition of TNFα expression [7]: the most active; SREBP-1c up-regulation [8]: poor activators of SREBP1c and SCD1; SCD1 expression [9]: poor activators of SREBP1c and SCD1 |
